# Values joined by “and” are separate entries in the source; they are usually repeats but may differ in a detail not shown here. Equal values may be shown once.
# Legend:
# [1] = target: GPIIb/IIIa (Homo sapiens, UniProt P05106+P08514); assay: In vitro solid phase purified glycoprotein IIb/IIIa binding assay (biotinylated fibrinogen binding); settings: for inhibition at 50 µM: read-out: Fibrinogen Binding % Inh. (50 µM)
# Description: IN VITRO SOLID PHASE PURIFIED GLYCOPROTEIN IIB/IIIA BINDING ASSAY.
# The plate is covered and incubated overnight at 4°C. The GPIIb/IIa solution is discarded and 150 µl of 5% BSA is added and incubated at RT for 1-3 h. The plate is washed extensively with modified Tyrodes buffer. Biotinylated fibrinogen (25 µl/well) at 2 x final concentration is added to the wells that contain the test compounds (25 µl/well). The plate is covered and incubated at RT for 2-4 h. Twenty minutes prior to incubation completion, one drop of Reagent A (Vecta Stain ABC Horse Radish Peroxidase kit, Vector Laboratories, Inc.) and one drop Reagent B are added with mixing to 5 mL modified Tyrodes buffer mix and let stand. The ligand solution is discarded and the plate washed (5 x 200 µl/well) with modified Tyrodes buffer. Vecta Stain HRP-Biotin-Avidin reagent (50 µl/well, as prepared above) is added and incubated at RT for 15 min. The Vecta Stain solution is discarded and the wells washed (5 x 200 µl/well) with modified Tyrodes buffer. Developing buffer (10 mL of 50 mM citrate/phosphate buffer @ pH 5.3, 6 mg o-phenylenediamine, 6 µl 30% H2O2; 50 µl/well) is added and incubated at RT for 3-5 min, and then 2N H2SO4 (50 µl/well) is added. The absorbance is read at 490 nm.
# [2] = test system: gel-filtered platelets; assay: In vitro inhibition of thrombin-induced gel-filtered platelet aggregation; type: cell-based; settings: Homo sapiens; for inhibition at 50 µM: read-out: Platelet Aggregation % Inh. (50µM)
# Description: IN VITRO INHIBITION OF THROMBIN-INDUCED GEL-FILTERED PLATELET AGGREGATION ASSAY.
# The percentage of platelet aggregation is calculated as an increase in light transmission of compound-treated platelet concentrate vs. control-treated platelet concentrate. Human blood is obtained from drug free, normal donors into tubes containing 0.13M sodium citrate. Platelet rich plasma (PRP) is collected by centrifugation of whole blood at 200 x g for 10 min at 25°C. The PRP (5 mL) is gel filtered through Sepharose 2B (bed volume 50 mL), and the platelet count is adjusted to 2x10^7 platelets per sample. The following constituents are added to a siliconized cuvette: concentrated platelet filtrate and Tyrode's buffer (0.14M NaCl, 0.0027MKCl, 0.012M NaHCO3, 0.76 mM Na2HPO4, 0.0055M glucose, 2 mg/mL BSA and 5.0mM HEPES @ pH 7.4) in an amount equal to 350 µl, 50 µl of 20 mM calcium and 50 µl of the test compound. Aggregation is monitored in a BIODATA aggregometer for the 3 min following the addition of agonist (thrombin 50 µl of 1 unit/mL).
# [3] = test system: collagen- or ADP-induced ex vivo platelet aggregation; assay: Ex vivo dog study (platelet aggregation, hemodynamics, bleeding time, coagulation, cell counts); type: in vivo, dogs
# Description: Adult mongrel dogs (8-13 kg) were anesthetized with sodium pentobarbital (35 mg/kg, i.v.) and artificially respired. Arterial blood pressure and heart rate were measured using a Millar catheter-tip pressure transducer inserted in a femoral artery. Another Millar transducer was placed in the left ventricle (LV) via a carotid artery to measure LV end diastolic pressure and indices of myocardial contractility. A lead II electrocardiogram was recorded from limb electrodes. Catheters were placed in a femoral artery and vein to sample blood and infuse drugs, respectively. Responses were continuously monitored using a Modular Instruments data aquisition system.
# Arterial blood samples (5-9 ml) were withdrawn into tubes containing 3.8% sodium citrate to prepare platelet rich plasma (PRP) and to determine effects on coagulation parameters: prothrombin time (PT) and activated partial thromboplastin time (APTT). Separate blood samples (1.5 ml) were withdrawn in EDTA to determine hematocrit and cell counts (platelets, RBC's and white cells). Template bleeding times were obtained from the buccal surface using a symplate incision devise and Whatman filter paper.
# Aggregation of PRP was performed using a BioData aggregometer. Aggregation of whole blood used a Chronolog impedance aggregometer. PT and APTT were determined on either a BioData or ACL 3000+ coagulation analyser. Cells were counted with a Sysmex K-1000.
# Compounds were solubilized in a small volume of dimethylformamide (DMF) and diluted with saline to a final concentration of 10% DMF. Compounds were administered by the intravenous route with a Harvard infusion pump. Doses was administered over a 15 min interval at a constant rate of 0.33 ml/min. Data were obtained after each dose and in 30 min intervals following the end of drug administration. Oral doses were administered as aqueous solutions via syringe.
# [4] = test system: thrombus formation; assay: Canine arteriovenous shunt model of thrombosis; type: in vivo
# Description: For instance, compound 16 inhibits thrombus formation at 10, 30, and 100 µg/kg/min cumulative doses by iv infusion (75%, 37%, 12% of thrombus weight vs. vehicle control, respectively). Compound 18 inhibits thrombus formation at 3, 10, and 30 µg/kg/min cumulative doses by iv infusion (82%, 41%, 12% of thrombus weight vs. vehicle control, respectively).
# Sequence of GPIIb/IIIa (P08514 32-887 limits assumed): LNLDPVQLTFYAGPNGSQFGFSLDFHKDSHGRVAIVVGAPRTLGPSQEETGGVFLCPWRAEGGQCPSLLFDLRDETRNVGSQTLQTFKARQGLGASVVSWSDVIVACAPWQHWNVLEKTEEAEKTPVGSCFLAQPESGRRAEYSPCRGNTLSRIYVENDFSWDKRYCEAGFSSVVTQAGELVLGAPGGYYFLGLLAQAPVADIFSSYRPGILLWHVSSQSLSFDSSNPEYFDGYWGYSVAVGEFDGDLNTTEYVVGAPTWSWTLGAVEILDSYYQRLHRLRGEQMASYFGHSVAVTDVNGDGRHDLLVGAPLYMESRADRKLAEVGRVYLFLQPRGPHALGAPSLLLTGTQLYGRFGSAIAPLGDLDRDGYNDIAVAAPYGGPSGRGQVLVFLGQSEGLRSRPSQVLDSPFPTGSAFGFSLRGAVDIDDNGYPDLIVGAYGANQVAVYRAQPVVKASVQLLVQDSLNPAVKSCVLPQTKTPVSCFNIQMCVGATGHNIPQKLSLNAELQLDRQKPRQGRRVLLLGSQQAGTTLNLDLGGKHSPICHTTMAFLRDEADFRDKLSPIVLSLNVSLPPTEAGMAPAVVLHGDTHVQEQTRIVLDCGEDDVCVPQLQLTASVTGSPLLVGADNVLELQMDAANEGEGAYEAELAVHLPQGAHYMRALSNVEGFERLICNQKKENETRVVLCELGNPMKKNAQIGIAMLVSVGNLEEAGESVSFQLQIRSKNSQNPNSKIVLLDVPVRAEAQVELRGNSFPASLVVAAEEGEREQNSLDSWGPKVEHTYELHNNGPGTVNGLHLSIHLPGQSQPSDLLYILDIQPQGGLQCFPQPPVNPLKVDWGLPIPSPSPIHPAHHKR
# Sequence of GPIIb/IIIa (P08514 891-1039 partner limits assumed): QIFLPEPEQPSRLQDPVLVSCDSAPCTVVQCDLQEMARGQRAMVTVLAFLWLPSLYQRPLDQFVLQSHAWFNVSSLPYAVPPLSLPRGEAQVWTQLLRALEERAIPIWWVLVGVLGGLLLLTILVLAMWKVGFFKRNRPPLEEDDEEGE
# Sequence of GPIIb/IIIa (P05106 27-788): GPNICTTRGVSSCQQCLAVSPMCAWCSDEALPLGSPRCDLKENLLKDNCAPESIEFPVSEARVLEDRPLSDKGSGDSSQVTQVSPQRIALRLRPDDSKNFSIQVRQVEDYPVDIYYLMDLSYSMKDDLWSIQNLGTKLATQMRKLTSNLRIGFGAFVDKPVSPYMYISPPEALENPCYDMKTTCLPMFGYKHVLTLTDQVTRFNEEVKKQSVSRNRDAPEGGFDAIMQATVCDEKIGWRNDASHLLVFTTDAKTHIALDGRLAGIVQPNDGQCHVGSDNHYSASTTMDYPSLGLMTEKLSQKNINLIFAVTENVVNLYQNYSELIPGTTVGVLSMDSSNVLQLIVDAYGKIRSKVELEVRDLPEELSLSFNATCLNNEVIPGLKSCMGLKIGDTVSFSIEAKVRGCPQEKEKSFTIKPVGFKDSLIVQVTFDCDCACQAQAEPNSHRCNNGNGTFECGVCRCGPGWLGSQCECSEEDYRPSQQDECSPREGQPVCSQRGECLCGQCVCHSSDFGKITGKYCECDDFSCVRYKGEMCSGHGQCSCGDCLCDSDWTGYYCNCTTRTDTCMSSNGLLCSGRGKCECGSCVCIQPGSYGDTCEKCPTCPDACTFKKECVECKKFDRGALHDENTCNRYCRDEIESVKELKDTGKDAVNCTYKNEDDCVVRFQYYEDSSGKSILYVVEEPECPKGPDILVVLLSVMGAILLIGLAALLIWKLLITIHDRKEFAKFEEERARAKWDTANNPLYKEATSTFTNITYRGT
SMILES,IC50 [1] [µM],inhibition at 50 µM [1] [%],IC50 [2] [µM],inhibition at 50 µM [2] [%],Duration of >50% inhibition of collagen-induced ex vivo platelet aggregation ([3]; intravenous dosing 0.3 mpk) [min],Duration of >50% inhibition of collagen-induced ex vivo platelet aggregation ([3]; oral dosing 3 mpk) [min],other results
"CC(C)(C)C#CC(CC(=O)O)NC(=O)C1CCCN(C(=O)CCC2CCNCC2)C1 (single isomer, unassigned) [Compound 19]",0.021,99,0.079,92.1,–,–,Duration of >50% inhibition of collagen- or ADP-induced ex vivo platelet aggregation ([3]; intravenous dosing 1 mpk): 30 min; Duration of >50% inhibition of collagen- or ADP-induced ex vivo platelet aggregation ([3]; oral dosing 10 mpk): 90 min
"CN1CCN(CCC(=O)N2CCCC(C(=O)NC(CC(=O)O)c3cnc4ccccc4c3)C2)CC1 (stereo not drawn) [Compound 15, N-3-(4-N-Methyl-piperazinepropionyl)-nipecotyl-[3-amino-3-(3-quinolinyl)]propionic acid]",0.0091,100,1.9,92.2,–,–,Duration of >50% inhibition of collagen- or ADP-induced ex vivo platelet aggregation ([3]; intravenous dosing 1 mpk): 30 min; Duration of >50% inhibition of collagen- or ADP-induced ex vivo platelet aggregation ([3]; oral dosing 10 mpk): 120 min
"O=C(O)CC(NC(=O)C1CCCN(C(=O)CCC2CCNCC2)C1)c1ccc2c(c1)OCO2 [Compound 16, N-3-(4-Piperidinepropionyl)-R-(-)-nipecotyl-[(S)-3-amino-3-(3,4-methylenedioxyphenyl)]propionic acid]",0.0005,100,0.028,94,–,–,% of thrombus weight vs. vehicle control ([4]; 10 µg/kg/min cumulative dose by iv infusion): 75%; % of thrombus weight vs. vehicle control ([4]; 30 µg/kg/min cumulative dose by iv infusion): 37%; % of thrombus weight vs. vehicle control ([4]; 100 µg/kg/min cumulative dose by iv infusion): 12%; Duration of >50% inhibition of collagen- or ADP-induced ex vivo platelet aggregation ([3]; intravenous dosing 0.1 mpk): 60 min; Duration of >50% inhibition of collagen- or ADP-induced ex vivo platelet aggregation ([3]; oral dosing 1 mpk): 60 min; Duration of >50% inhibition of collagen- or ADP-induced ex vivo platelet aggregation ([3]; oral dosing 3 mpk): >180 min
"O=C(O)C[C@H](NC(=O)[C@@H]1CCCN(C(=O)CCC2CCNCC2)C1)c1cccnc1 [Compound 21, N-3-(4-Piperidinepropionyl)-R-(-)-nipecotyl-[(S)-3-amino-3-(3-pyridyl)] propionic acid]",–,100,0.06,100,–,–,Duration of >50% inhibition of collagen- or ADP-induced ex vivo platelet aggregation ([3]; intravenous dosing 0.3 mpk): 150 min; Duration of >50% inhibition of collagen- or ADP-induced ex vivo platelet aggregation ([3]; oral dosing 1 mpk): 180 min
"COc1cccc(NC(=O)N[C@@H](CNC(=O)[C@@H]2CCCN(C(=O)CCC3CCNCC3)C2)C(=O)O)c1 [Compound 22, N-3-(4-Piperidinepropionyl)-R-(-)nipecotyl-[(S)-2-(3-methoxyanilino)carbonylamino-3-amino]propionic acid]",–,100,0.046,94,180,60,–
"O=C(N[C@@H](CNC(=O)[C@@H]1CCCN(C(=O)CCC2CCNCC2)C1)C(=O)O)OCc1ccccc1 [Compound 23, N-3-(4-Piperidinepropionyl)-R-(-)nipecotyl-[(S)-2-benzyloxycarbonylamino-3-amino]propionic acid]",–,100,0.027,97,–,150,Duration of >50% inhibition of collagen-induced ex vivo platelet aggregation ([3]; intravenous dosing 0.1 mpk): 60 min; Duration of >50% inhibition of collagen-induced ex vivo platelet aggregation ([3]; oral dosing 1 mpk): 180 min
"O=C(N[C@@H](CNC(=O)[C@@H]1CCCN(C(=O)CCC2CCNCC2)C1)C(=O)O)OCc1cccc(Cl)c1 [Compound 24, N-3-(4-Piperidinepropionyl)-R-(-)nipecotyl-[(S)-2-(3-chlorobenzyloxy)carbonylamino-3-amino]propionic acid]",0.0004,100,0.018,100,90,120,–
"O=C(NC[C@H](NS(=O)(=O)Cc1ccccc1)C(=O)O)[C@@H]1CCCN(C(=O)CCC2CCNCC2)C1 [Compound 25, N-3-(4-Piperidinepropionyl)-R-(-)nipecotyl-[(S)-2-benzylsulfonylamino-3-amino]propionic acid]",–,100,0.007,97,30,60,–
"COc1cc(NC(=O)N[C@@H](CNC(=O)[C@@H]2CCCN(C(=O)CCC3CCNCC3)C2)C(=O)O)cc(OC)c1 [Compound 26, N-3-(4-Piperidinepropionyl)-R-(-)nipecotyl-[(S)-2-(3,5-dimethoxyanllino)carbonylamino-3-amino]propionic acid]",–,100,0.016,97,–,60,–
"O=C(O)C[C@H](NC(=O)[C@@H]1CCCN(C(=O)N2CCC(C3CCNCC3)CC2)C1)c1cccnc1 [Compound 27, N-[(4,4'-Bipiperidin-1-yl-)carbonyl]-R-(-)-nipecotyl-[(S)-3-amino-3-(3-pyridyl)] propionic acid]",–,100,0.45,100,60,120,–
"O=C(Nc1ccc2ccccc2c1)N[C@@H](CNC(=O)[C@@H]1CCCN(C(=O)CCC2CCNCC2)C1)C(=O)O [Compound 28, N-3-(4-Piperidinepropionyl)-R-(-)nipecotyl-[(S)-2-(2-naphthylamino)carbonylamino-3-amino]propionic acid]",–,100,0.17,100,–,120,–
"O=C(NCCc1ccccc1)N[C@@H](CNC(=O)[C@@H]1CCCN(C(=O)CCC2CCNCC2)C1)C(=O)O [Compound 30, N-3-(4-Piperidinepropionyl)-R-(-)nipecotyl-[(S)-2-(2-phenethylamino)carbonylamino-3-amino]propionic acid]",–,100,0.19,100,105,180,–
"Cc1ccc([C@H](CC(=O)O)NC(=O)[C@@H]2CCCN(C(=O)CCC3CCNCC3)C2)cn1 [Compound 31, N-3-(4-Piperidinepropionyl)-R-(-)nipecotyl-[(S)-3-amino-3-(6-methyl-3-pyridyl)]propionic acid]",–,100,0.045,100,–,–,"Duration of >50% inhibition of collagen-induced ex vivo platelet aggregation ([3]; intravenous dosing 0.3 mpk, 0.3 mg/kg): 120 min and 60 min; Duration of >50% inhibition of collagen-induced ex vivo platelet aggregation ([3]; oral dosing 3 mpk, 3 mg/kg): >180 min and 180 min"
